Assays:
[1] = test system: model mice of colorectal cancer (AOM/DSS); assay: Model mice of colorectal cancer (AOM/DSS), oral administration; assay type: in vivo, ICR mice; conditions: for ratio of tumor area in the colon / number of tumors having a diameter of more than 2 mm / tumor area in the colon: versus placebo group; for ratio of tumor area in the colon: FIG. 2A; for number of tumors having a diameter of more than 2 mm: FIG. 2B; for colon length: shortening in placebo group versus control group, FIG. 1B; for tumor area in the colon: FIG. 1A
Protocol: Model mice of colorectal cancer were prepared using azoxymethane (AOM; manufactured by Wako Pure Chemical Industries, Ltd.) and dextran sulfate sodium (DSS, manufactured by MP Biomedicals). Specifically, 5-week-old male ICR mice (produced by CLEA Japan) were first acclimated and bred for 1 week. At 6 weeks of age, the mice were randomly divided in a control group and 5 colorectal cancer groups (placebo group, Present Compound #1[1] group, Present Compound #1[10] group, Present Compound #2[1] group, and Present Compound #2[10] group), and 10 (mg/kg body weight) of AOM was intraperitoneally administered to the colorectal cancer groups. Seven days later, the mice were allowed to freely drink 2.5% (w/v) DSS for 1 week, and then tap water for 14 days. This administration of DSS was performed for […] to prepare model mice of colorectal cancer. When the above AOM was intraperitoneally administered (that is, at 6 weeks of age), physiological saline solutions containing 1 (mg/kg body weight/day) and 10 (mg/kg body weight/day) of the Present Compound #1 were orally administered for 70 consecutive days thereafter to the Present Compound #1(1) group and the Present Compound #1(10) group, respectively, physiological saline solutions containing 1 (mg/kg body weight/day) and 10 (mg/kg body weight/day) of the Present Compound #2 were orally administered for 70 consecutive days thereafter to the Present Compound #2(1) group and the Present Compound #2(10) group, respectively, and a physiological saline solution was orally administered for 70 consecutive days thereafter to the placebo group. In addition, to the control group, a physiological saline solution was orally administered at 6 weeks of age for 70 consecutive days thereafter. All mice were sacrificed and the colons were harvested immediately after the end of the third cycle. The colons were photographed in full length and the colon length (see FIG. 1B), as well as the tumor area in the colon (see FIG. 1A), the ratio of tumor area in the colon (see FIG. 2A), and the number of tumors having a diameter of more than 2 mm (see FIG. 2B) were measured. Note that, for the tumors, the elevated lesions that were thought to contain cancer were visually observed in the colon (large intestine), and the area of these elevated lesions (that is, the tumors) and the total colon area were calculated by NIH Image J version 1.51 (US National Institutes of Health, MD, http://imagej.nih.gov/ij/index.html). The ratio of tumor area in the colon was calculated based on the formula “(elevated lesion area/total colon area)×100”.
Student's t-test was used for the comparison between two groups, and Dunnet's test or Tukey's test was used for the comparison between three groups. The survival rate (see FIG. 3) was evaluated by a log-rank test using the Kaplan-Meier survival curve. JMP version 14 (manufactured by SAS Institute) was used for statistical analysis. For all test results, p-values less than 0.05 were considered statistically significant.

[2] = test system: colorectal cancer cell line HCT116; assay: Cell migration test; assay type: cell-based, human; conditions: 50 μM, 48 hours, HCT116, 20% FBS as attractant; versus absence of compound; FIG. 4
Protocol: Cells of the human colorectal cancer cell line HCT116 (obtained from ATCC) were cultured and maintained in a DMEM (Dulbecco's Modified Eagle Medium) culture solution (manufactured by Sigma-Aldrich) containing 10% fetal bovine serum (FBS) (manufactured by Biowest) and 1% penicillin-streptomycin (manufactured by Thermo Fisher Science) under the conditions of 5% CO2/20% O2 and 37° C.
7.5×10^4 cells of the colorectal cancer cell line HCT116 were seeded in each well of the Corning Fluoroblok 24-Multiwell Insert Systems (pore size: 8.0 μm) (manufactured by Corning), and cultured for 48 hours in FBS-free DMEM culture solution or FBS-free DMEM culture solution containing 50 μM of the Present Compound #2. Note that a DMEM culture solution containing 20% FBS, which is an attractant, was added to the chamber at the bottom of the plate. The migrating cells that had passed through the membrane on the lower surface of the cell culture insert were stained using a Diff-Quik kit (manufactured by Sysmex), the membrane was air-dried, and then the number of cells was measured in three fields of view using a phase-contrast microscope.
Student's t-test was used for the comparison between two groups, and Dunnet's test or Tukey's test was used for the comparison between three groups. The survival rate (see FIG. 3) was evaluated by a log-rank test using the Kaplan-Meier survival curve. […]

[3] = 1 mg/kg body weight/day orally for 70 consecutive days
[4] = 10 mg/kg body weight/day orally for 70 consecutive days

| Compound | ratio of tumor area in the colon [1, 3] | number of tumors having a diameter of more than 2 mm [1, 3] | colon length [1, 4] | tumor area in the colon [1, 4] | ratio of tumor area in the colon [1, 4] | number of tumors having a diameter of more than 2 mm [1, 4] | cell migration level [2] | colon length [1, 3] | tumor area in the colon [1, 3] | survival ([1]; 10 mg/kg body weight/day orally, 4 out of 8 mice died in the placebo group, FIG. 3) |
| --- | --- | --- | --- | --- | --- | --- | --- | --- | --- | --- |
| O=C(CC(C(=O)O)c1c[nH]c2ccccc12)c1ccc(F)cc1F (centres unmarked) [Present Compound #1, 4-(2,4-difluorophenyl)-2-(1H-indole-3-yl)-4-oxo-butanoic acid] | smaller | smaller | shortening was suppressed | smaller | smaller | smaller |  |  |  |  |
| COc1cc(COc2ccc3[nH]cc(CC(=O)O)c3c2)cc(OC)c1 [Present Compound #2, 5-(3,5-dimethoxybenzyloxy)-3-indoleacetic acid] |  |  | shortening was suppressed | smaller | smaller | smaller | lower | shortening was suppressed | smaller | all 8 mice survived |

— US12357612B2, “Prophylactic or therapeutic agent for cancer” (TOHOKU UNIVERSITY, priority 2019, dated 2025)
